According to patent publication US11000033B2, “Ketone or oxime compound, and herbicide” (NISSAN CHEMICAL CORPORATION, priority 2014, dated 2021):

Assays:
Type in all cases: in vivo
rapeseed = assay: Test Example 5: effect on crop by foliage application, plastic box (symbol g); conditions: 320 g/ha, 3 weeks after application
Procedure, shortened: (§1)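 Diluvial soil, sterilized and boxed (21 × 13 × 7 cm), received spot-sown seed covered by about 1.5 cm soil; plants were then greenhouse-grown at 25–30° C.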

Avena fatua = assay: Test Example 4: herbicidal effect by soil treatment (symbol I); conditions: application herbicide amount 320 g/ha
Procedure, shortened: (§2)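 Seeds were sown in sterilized diluvial soil, covered with about 1.5 cm of soil, and the soil surface was sprayed with a water-diluted emulsion of the compound at a predetermined rate. Plants grew in a greenhouse at 25° C. to 30° C.; effects were scored visually 3 weeks after application.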

Monochoria vaginalis [1] = assay: Test Example 1: herbicidal activity, application before weed generation in submerged conditions (symbol C); conditions: application herbicide amount 320 g/ha
Procedure, shortened: (§3)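 Steps: alluvial soil flooded to 4 cm; weed seeds sown together; rice seedlings (2.5 leaf) transplanted; diluted emulsion applied to water surface the same day as sowing; plants grown at 25–30 °C in greenhouse; herbicidal effect rated on a 0–5 scale at 3 weeks.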

Abutilon theophrasti [2] = assay: Test Example 5: herbicidal effect by foliage application, plastic box (symbol M); conditions: 320 g/ha, 3 weeks after application
Procedure, shortened: (§4)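 Herbicide, formulated as an emulsion and diluted in water, is sprayed onto the aerial parts of 14-day seedlings. These were grown at 25° C. to 30° C. in sterilized diluvial soil; effects are graded after 3 weeks.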

[3] = system: Echinochloa oryzacola Vasing.; assay: Test Example 1: herbicidal activity, application before weed generation in submerged conditions (symbol A); conditions: application herbicide amount 320 g/ha
Procedure, shortened: as §3

Amaranthus retroflexus = assay: Test Example 5: herbicidal effect by foliage application, plastic box (symbol N); conditions: 320 g/ha, 3 weeks after application
Procedure, shortened: as §4

Scirpus juncoides = assay: Test Example 2: herbicidal activity, application during weed generation in submerged conditions (symbol B); conditions: Table 23; application herbicide amount 320 g/ha; grade 0-5 by criteria of Test Example 1
Procedure, shortened: (§5)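 Flooded-soil post-emergence test: emulsion of compound, water-diluted to target rate, applied to paddy water surface at 1–2 leaf stage of mixed-sown weeds (alluvial soil, 4 cm water, 25–30° C. greenhouse); visual rating 3 weeks after application.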

[4] = system: Echinochloa crus-galli var. crus-galli; assay: Test Example 5: herbicidal effect by foliage application, plastic box (symbol H); conditions: 320 g/ha, 3 weeks after application
Procedure, shortened: as §4

Galium spurium = assay: Test Example 4: herbicidal effect by soil treatment (symbol Q); conditions: application herbicide amount 320 g/ha
Procedure, shortened: as §2

Digitaria ciliaris = assay: Test Example 4: herbicidal effect by soil treatment (symbol F); conditions: application herbicide amount 320 g/ha
Procedure, shortened: as §2

[5] = system: Echinochloa oryzacola Vasing.; assay: Test Example 2: herbicidal activity, application during weed generation in submerged conditions (symbol A); conditions: Table 23; application herbicide amount 320 g/ha; grade 0-5 by criteria of Test Example 1
Procedure, shortened: as §5

Abutilon theophrasti [6] = assay: Test Example 4: herbicidal effect by soil treatment (symbol M); conditions: application herbicide amount 320 g/ha
Procedure, shortened: as §2

beet = assay: Test Example 5: effect on crop by foliage application, plastic box (symbol f); conditions: 320 g/ha, 3 weeks after application
Procedure, shortened: as §1

Alopecurus myosuroides = assay: Test Example 4: herbicidal effect by soil treatment (symbol J); conditions: application herbicide amount 320 g/ha
Procedure, shortened: as §2

Monochoria vaginalis [7] = assay: Test Example 2: herbicidal activity, application during weed generation in submerged conditions (symbol C); conditions: Table 23; application herbicide amount 320 g/ha; grade 0-5 by criteria of Test Example 1
Procedure, shortened: as §5

rice = assay: Test Example 4: effect on crop by soil treatment (symbol b); conditions: application herbicide amount 320 g/ha
Procedure, shortened: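 Sterilized diluvial soil, spot sowing, ~1.5 cm soil cover; greenhouse 25–30° C.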

Compound | g: rapeseed, effect on crop grade (rapeseed) | I (Avena fatua) herbicidal effect grade (Avena fatua) | Herbicidal effect grade, C: Monochoria vaginalis (Monochoria vaginalis [1]) | M: Abutilon theophrasti, herbicidal effect grade (Abutilon theophrasti [2]) | Herbicidal effect grade, A: Echinochloa oryzacola Vasing. [3] | N: Amaranthus retroflexus, herbicidal effect grade (Amaranthus retroflexus) | Herbicidal effect grade, B: Scirpus juncoides (Scirpus juncoides) | H: Echinochloa crus-galli var. crus-galli, herbicidal effect grade [4] | Q (Galium spurium) herbicidal effect grade (Galium spurium) | F (Digitaria ciliaris) herbicidal effect grade (Digitaria ciliaris) | Herbicidal effect grade, A: Echinochloa oryzacola Vasing. [5] | M (Abutilon theophrasti) herbicidal effect grade (Abutilon theophrasti [6]) | f: beet, effect on crop grade (beet) | J (Alopecurus myosuroides) herbicidal effect grade (Alopecurus myosuroides) | Herbicidal effect grade, C: Monochoria vaginalis (Monochoria vaginalis [7]) | b (directly sowed rice plant) effect on crop grade (rice)
CON=C(C)CC1CC(OC(=O)COc2cccc(OC)c2)=C(c2c(C)cc(C)cc2C)C1=O (centres unmarked) [1-068] | 4 (Herbicidal ratio of 70% or higher and lower than 90%) | 3 (Herbicidal ratio of 40% or higher and lower than 70%) | 3 (Herbicidal ratio of 40% or higher and lower than 70%) | 5 (Herbicidal ratio of 90% or more (almost completely withered)) | 5 (Herbicidal ratio of 90% or more (almost completely withered)) | 4 (Herbicidal ratio of 70% or higher and lower than 90%) | 5 (Herbicidal ratio of 90% or more (almost completely withered)) | 5 (Herbicidal ratio of 90% or more (almost completely withered)) | 0 (Herbicidal ratio of 5% or lower (almost no effect)) | 5 (Herbicidal ratio of 90% or more (almost completely withered)) | 5 (Herbicidal ratio of 90% or more (almost completely withered)) | 4 (Herbicidal ratio of 70% or higher and lower than 90%) | 3 (Herbicidal ratio of 40% or higher and lower than 70%) | 5 (Herbicidal ratio of 90% or more (almost completely withered)) | 3 (Herbicidal ratio of 40% or higher and lower than 70%) | 5 (Herbicidal ratio of 90% or more (almost completely withered))
COCC(CC1CC(O)=C(c2c(C)cc(C)cc2C)C1=O)=NOC (centres unmarked) [1-040] | 4 (Herbicidal ratio of 70% or higher and lower than 90%) | 3 (Herbicidal ratio of 40% or higher and lower than 70%) | 0 (Herbicidal ratio of 5% or lower (almost no effect)) | 1 (Herbicidal ratio of 5% or higher and lower than 20%) | 3 (Herbicidal ratio of 40% or higher and lower than 70%) | 0 (Herbicidal ratio of 5% or lower (almost no effect)) | 0 (Herbicidal ratio of 5% or lower (almost no effect)) | 5 (Herbicidal ratio of 90% or more (almost completely withered)) | 0 (Herbicidal ratio of 5% or lower (almost no effect)) | 4 (Herbicidal ratio of 70% or higher and lower than 90%) | 4 (Herbicidal ratio of 70% or higher and lower than 90%) | 0 (Herbicidal ratio of 5% or lower (almost no effect)) | 0 (Herbicidal ratio of 5% or lower (almost no effect)) | 4 (Herbicidal ratio of 70% or higher and lower than 90%) | 0 (Herbicidal ratio of 5% or lower (almost no effect)) | 5 (Herbicidal ratio of 90% or more (almost completely withered))
CCON=C(C)CC1CC(O)=C(c2c(C)cc(C)cc2C)C1=O (centres unmarked) [1-003] | 4 (Herbicidal ratio of 70% or higher and lower than 90%) | 4 (Herbicidal ratio of 70% or higher and lower than 90%) | 5 (Herbicidal ratio of 90% or more (almost completely withered)) | 4 (Herbicidal ratio of 70% or higher and lower than 90%) | 5 (Herbicidal ratio of 90% or more (almost completely withered)) | 3 (Herbicidal ratio of 40% or higher and lower than 70%) | 3 (Herbicidal ratio of 40% or higher and lower than 70%) | 5 (Herbicidal ratio of 90% or more (almost completely withered)) | 0 (Herbicidal ratio of 5% or lower (almost no effect)) | 5 (Herbicidal ratio of 90% or more (almost completely withered)) | 5 (Herbicidal ratio of 90% or more (almost completely withered)) | 4 (Herbicidal ratio of 70% or higher and lower than 90%) | 3 (Herbicidal ratio of 40% or higher and lower than 70%) | 5 (Herbicidal ratio of 90% or more (almost completely withered)) | 3 (Herbicidal ratio of 40% or higher and lower than 70%) | 5 (Herbicidal ratio of 90% or more (almost completely withered))
CON=C(C)C(c1ccc(F)cc1)C1CC(O)=C(c2c(C)cc(C)cc2C)C1=O (centres unmarked) [1-049] | 0 (Herbicidal ratio of 5% or lower (almost no effect)) | 0 (Herbicidal ratio of 5% or lower (almost no effect)) | 0 (Herbicidal ratio of 5% or lower (almost no effect)) | 0 (Herbicidal ratio of 5% or lower (almost no effect)) | 0 (Herbicidal ratio of 5% or lower (almost no effect)) | 0 (Herbicidal ratio of 5% or lower (almost no effect)) | 0 (Herbicidal ratio of 5% or lower (almost no effect)) | 0 (Herbicidal ratio of 5% or lower (almost no effect)) | 0 (Herbicidal ratio of 5% or lower (almost no effect)) | 0 (Herbicidal ratio of 5% or lower (almost no effect)) | 0 (Herbicidal ratio of 5% or lower (almost no effect)) | 0 (Herbicidal ratio of 5% or lower (almost no effect)) | 0 (Herbicidal ratio of 5% or lower (almost no effect)) | 0 (Herbicidal ratio of 5% or lower (almost no effect)) | 0 (Herbicidal ratio of 5% or lower (almost no effect)) | 0 (Herbicidal ratio of 5% or lower (almost no effect))
CON=C(C)CC1CC(OC(=O)COc2ccccc2OC)=C(c2c(C)cc(C)cc2C)C1=O (centres unmarked) [1-067] | 4 (Herbicidal ratio of 70% or higher and lower than 90%) | 3 (Herbicidal ratio of 40% or higher and lower than 70%) | 1 (Herbicidal ratio of 5% or higher and lower than 20%) | 5 (Herbicidal ratio of 90% or more (almost completely withered)) | 5 (Herbicidal ratio of 90% or more (almost completely withered)) | 4 (Herbicidal ratio of 70% or higher and lower than 90%) | 4 (Herbicidal ratio of 70% or higher and lower than 90%) | 5 (Herbicidal ratio of 90% or more (almost completely withered)) | 0 (Herbicidal ratio of 5% or lower (almost no effect)) | 5 (Herbicidal ratio of 90% or more (almost completely withered)) | 4 (Herbicidal ratio of 70% or higher and lower than 90%) | 5 (Herbicidal ratio of 90% or more (almost completely withered)) | 1 (Herbicidal ratio of 5% or higher and lower than 20%) | 5 (Herbicidal ratio of 90% or more (almost completely withered)) | 2 (Herbicidal ratio of 20% or higher and lower than 40%) | 5 (Herbicidal ratio of 90% or more (almost completely withered))
